From the supplement of paper PMC10307832

Tests used:
Assay in all cases: relative viability (nuclei count vs DMSO), 5 days (fraction); higher = more cells survive
Dovitinib + Alpelisib = compound: CN1CCN(c2ccc3nc(-c4c(N)c5c(F)cccc5[nH]c4=O)[nH]c3c2)CC1 [Dovitinib] + Cc1nc(NC(=O)N2CCC[C@H]2C(N)=O)sc1-c1ccnc(C(C)(C)C(F)(F)F)c1 [Alpelisib] (partner 2 µM)
How it was run: (§1)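 Relative viability was taken as the ratio of nuclei in treated wells to nuclei in vehicle wells. Lung cancer cell lines in 1536-well plates received compounds by pin tool one day after seeding, either one drug alone or a fixed anchor-drug dose plus five library-drug doses (not always all listed) in √10 steps. Nuclei were counted on 4× images after 5 days of treatment, and values are medians of duplicate plates.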

Dovitinib + Tozasertib = compound: CN1CCN(c2ccc3nc(-c4c(N)c5c(F)cccc5[nH]c4=O)[nH]c3c2)CC1 [Dovitinib] + Cc1cc(Nc2cc(N3CCN(C)CC3)nc(Sc3ccc(NC(=O)C4CC4)cc3)n2)n[nH]1 [Tozasertib] (partner 0.1 µM)
How it was run: as §1

Dovitinib + Dasatinib = compound: CN1CCN(c2ccc3nc(-c4c(N)c5c(F)cccc5[nH]c4=O)[nH]c3c2)CC1 [Dovitinib] + Cc1nc(Nc2ncc(C(=O)Nc3c(C)cccc3Cl)s2)cc(N2CCN(CCO)CC2)n1 [Dasatinib] (partner 0.075 µM)
How it was run: as §1

Dovitinib + Luminespib = compound: CN1CCN(c2ccc3nc(-c4c(N)c5c(F)cccc5[nH]c4=O)[nH]c3c2)CC1 [Dovitinib] + CCNC(=O)c1noc(-c2cc(C(C)C)c(O)cc2O)c1-c1ccc(CN2CCOCC2)cc1 [Luminespib] (partner 0.01 µM)
How it was run: as §1

| Cell Line | relative viability (Dovitinib + Alpelisib; first compound 0.02 µM) | relative viability (Dovitinib + Alpelisib; first compound 0.06325 µM) | relative viability (Dovitinib + Alpelisib; first compound 0.6325 µM) | relative viability (Dovitinib + Alpelisib; first compound 2 µM) | relative viability (Dovitinib + Tozasertib; first compound 0.02 µM) | relative viability (Dovitinib + Tozasertib; first compound 0.06325 µM) | relative viability (Dovitinib + Tozasertib; first compound 0.2 µM) | relative viability (Dovitinib + Tozasertib; first compound 0.6325 µM) | relative viability (Dovitinib + Tozasertib; first compound 2 µM) | relative viability (Dovitinib + Dasatinib; first compound 0.02 µM) | relative viability (Dovitinib + Dasatinib; first compound 0.06325 µM) | relative viability (Dovitinib + Dasatinib; first compound 0.2 µM) | relative viability (Dovitinib + Dasatinib; first compound 0.6325 µM) | relative viability (Dovitinib + Dasatinib; first compound 2 µM) | relative viability (Dovitinib + Luminespib; first compound 0.02 µM) | relative viability (Dovitinib + Luminespib; first compound 0.06325 µM) | relative viability (Dovitinib + Luminespib; first compound 0.2 µM) | relative viability (Dovitinib + Luminespib; first compound 0.6325 µM) | relative viability (Dovitinib + Luminespib; first compound 2 µM) | relative viability (Dovitinib + Alpelisib; first compound 0.2 µM) |
| --- | --- | --- | --- | --- | --- | --- | --- | --- | --- | --- | --- | --- | --- | --- | --- | --- | --- | --- | --- | --- |
| 201T | 0.979 | 0.975 | 1.01 | 0.996 | 0.917 | 0.967 | 0.975 | 0.946 | 0.873 | 0.571 | 0.565 | 0.581 | 0.566 | 0.538 | 0.924 | 1.04 | 1.02 | 1.09 | 1.01 | – |
| A-427 | 0.979 | 1.03 | 0.938 | 1.03 | 0.222 | 0.201 | 0.203 | 0.162 | 0.225 | 0.624 | 0.654 | 0.673 | 0.634 | 0.698 | 0.843 | 1.02 | 1.14 | 0.897 | 0.747 | 1.07 |
| ABC-1 | 0.994 | 0.947 | 0.564 | 0.823 | 0.175 | 0.208 | 0.201 | 0.208 | 0.192 | 0.479 | 0.55 | 0.474 | 0.618 | 0.61 | – | 0.522 | 0.326 | 0.783 | 0.659 | 0.967 |
| BEN | 0.981 | 0.828 | 0.954 | 0.936 | 0.512 | 0.526 | 0.591 | 0.635 | 0.419 | 0.32 | 0.272 | 0.321 | 0.326 | 0.307 | 0.258 | 0.458 | 0.432 | 0.512 | 0.203 | 0.988 |
| CAL-12T | 1.16 | 1.06 | 1.37 | 1.15 | 0.28 | 0.3 | 0.341 | 0.262 | 0.285 | 0.43 | 0.486 | 0.465 | 0.49 | 0.457 | 0.297 | 0.469 | 0.495 | 0.519 | 0.219 | 1.18 |
| COR-L23 | 0.768 | 0.743 | 0.773 | 0.726 | 0.207 | 0.191 | 0.194 | 0.172 | 0.215 | 0.482 | 0.565 | 0.512 | 0.534 | 0.567 | 0.581 | 0.788 | 0.695 | 0.664 | 0.72 | 0.69 |
| COR-L 105 | 0.938 | 0.986 | 0.84 | 0.958 | 0.345 | 0.299 | 0.365 | 0.394 | 0.168 | 0.34 | 0.34 | 0.332 | 0.439 | 0.393 | 0.77 | 0.84 | 0.78 | 0.82 | 0.81 | 1.01 |
| Calu-6 | 0.943 | 0.97 | 0.925 | 1.01 | – | – | – | – | – | – | – | – | – | – | – | – | – | – | – | 0.872 |
| ChaGo-K-1 | – | – | – | – | 0.233 | 0.215 | 0.241 | 0.227 | 0.208 | 0.632 | 0.559 | 0.603 | 0.595 | 0.526 | 0.631 | 0.627 | 0.567 | 0.609 | 0.628 | – |
| EKVX | 0.889 | 0.848 | 0.942 | 0.946 | 0.431 | 0.367 | 0.372 | 0.431 | 0.38 | 0.517 | 0.662 | 0.588 | 0.61 | 0.611 | 0.914 | 0.901 | 0.882 | 0.89 | 0.866 | 0.901 |
| EMC-BAC-2 | 0.784 | 0.772 | 0.687 | 0.736 | 0.294 | 0.299 | 0.287 | 0.273 | 0.3 | 0.362 | 0.284 | 0.341 | 0.299 | 0.202 | 1.19 | 1.13 | 1.16 | 1.05 | 0.986 | 0.701 |
| EPLC-272H | 0.9 | 0.815 | 0.946 | 0.888 | 0.343 | 0.267 | 0.263 | 0.343 | 0.32 | 0.351 | 0.346 | 0.36 | 0.37 | 0.31 | 0.235 | 0.241 | 0.386 | 0.364 | 0.236 | 0.97 |
| H3255 | 0.785 | 0.655 | 0.8 | 0.937 | 0.741 | 0.617 | 0.766 | 0.638 | 0.629 | 0.405 | 0.374 | 0.424 | 0.445 | 0.369 | 0.943 | 0.9 | 0.956 | 0.932 | 0.923 | 0.735 |
| HARA | 0.791 | 0.908 | 0.853 | 0.705 | 0.117 | 0.11 | 0.107 | 0.102 | 0.112 | 0.319 | 0.152 | 0.275 | 0.226 | 0.291 | 0.708 | 0.682 | 0.595 | 0.603 | 0.763 | 0.778 |
| HCC-15 | 0.916 | 0.868 | 0.848 | 0.939 | 0.349 | 0.439 | 0.416 | 0.36 | 0.441 | 0.673 | 0.548 | 0.664 | 0.59 | 0.561 | 0.233 | 0.237 | 0.238 | 0.297 | 0.303 | 0.915 |
| HCC-44 | 0.721 | 0.783 | 0.856 | 0.747 | 0.724 | 1.03 | 0.99 | 0.884 | 0.938 | – | – | – | – | – | 0.981 | 0.976 | 1.12 | 1.11 | 1.02 | 0.835 |
| HCC-78 | 0.422 | – | 0.364 | 0.316 | 0.712 | 0.404 | 0.544 | 0.464 | 0.576 | 0.426 | 0.328 | 0.392 | 0.453 | 0.357 | – | – | – | – | – | 0.384 |
| HCC-366 | 0.545 | 0.393 | 0.505 | 0.446 | 0.0642 | 0.143 | 0.14 | 0.127 | 0.111 | 0.687 | 0.604 | 0.648 | 0.616 | 0.618 | – | – | – | – | – | 0.478 |
